Tests used:
Format in all cases: in vivo
[1] = tested on: Cayratia japonica; test: Foliage treatment (Example 8); design: key: 0 indicates no effect; 5 indicates complete kill; conditions: Plant No. 13 Cayratia japonica
Procedure: (§1) Aqueous solutions of Phosalacine (Na salt) at different concentrations were applied at a rate of 1500 liters per hectare to naturally occurring plants or plants which were cultured on plates as shown in the following Table at certain stages of growth. […] One month after the foliage treatment, the inhibition of regrowth of the plants was visually investigated.

[2] = tested on: Daucus carota; test: Foliage treatment (Example 8); design: key: 0 indicates no effect; 5 indicates complete kill; conditions: Plant No. 29 Daucus carota
Procedure: as §1

[3] = tested on: Digitaria adscendens; test: Foliage treatment (Example 8); design: key: 0 indicates no effect; 5 indicates complete kill; conditions: Plant No. 10 Digitaria adscendens
Procedure: as §1

[4] = tested on: Helianthus tuberosus; test: Foliage treatment (Example 8); design: key: 0 indicates no effect; 5 indicates complete kill; conditions: Plant No. 12 Helianthus tuberosus
Procedure: as §1

[5] = tested on: Imperata cyrindrica; test: Foliage treatment (Example 8); design: key: 0 indicates no effect; 5 indicates complete kill; conditions: Plant No. 15 Imperata cyrindrica
Procedure: as §1

[6] = tested on: Oryzae sativa; test: Foliage treatment (Example 8); design: key: 0 indicates no effect; 5 indicates complete kill; conditions: Plant No. 25 Oryzae sativa
Procedure: as §1

[7] = tested on: Pleioblastus chino; test: Foliage treatment (Example 8); design: key: 0 indicates no effect; 5 indicates complete kill; conditions: Plant No. 11 Pleioblastus chino
Procedure: as §1

[8] = tested on: Pueraria lobata; test: Foliage treatment (Example 8); design: key: 0 indicates no effect; 5 indicates complete kill; conditions: Plant No. 16 Pueraria lobata
Procedure: as §1

[9] = tested on: Raphanus sativus; test: Foliage treatment (Example 8); design: key: 0 indicates no effect; 5 indicates complete kill; conditions: Plant No. 32 Raphanus sativus
Procedure: as §1

[10] = tested on: Rumex obtusifolius; test: Foliage treatment (Example 8); design: key: 0 indicates no effect; 5 indicates complete kill; conditions: Plant No. 14 Rumex obtusifolius
Procedure: as §1

[11] = tested on: Solanum melongena; test: Foliage treatment (Example 8); design: key: 0 indicates no effect; 5 indicates complete kill; conditions: Plant No. 31 Solanum melongena
Procedure: as §1

[12] = tested on: Triticum aestivum; test: Foliage treatment (Example 8); design: key: 0 indicates no effect; 5 indicates complete kill; conditions: Plant No. 26 Triticum aestivum
Procedure: as §1

[13] = tested on: Castanea crenata; test: Foliage treatment of naturally growing weeds and brush (Example 9); design: key: 0 indicates no effect; 5 indicates complete kill; conditions: Plant No. 8 Castanea crenata, One month
Excerpt: Aqueous solutions of Phosalacine (Na salt) at different concentrations and 0.1% of octylphenylpolyoxy ethanol as surfactant were applied to the area where various weeds and brush were naturally growing at a rate of 1500 liter per hectare. One month after the foliage treatment, damage to weeds and brush was visually assessed on a scale of from 0 to 5 where 0 indicates no effect and 5 indicates complete kill as hereinbefore defined.

[14] = tested on: Chamaecyparis obtusa; test: Foliage treatment of woody plants (Example 10); design: key to damage to the plants, scale 0 to 5: 0 indicates no effect; 5 indicates complete kill; conditions: CH Chamaecyparis obtusa
Excerpt: (§2) Aqueous solutions containing Phosalacine (Na salt) at different concentrations and 0.1% of octylphenylpolyoxy ethanol as surfactant were applied at a rate of 1500 liter per hectare to woody plants of about 60-70 cm in height. 7 and 14 days after the foliage treatment, damage to the plants was visually assessed on a scale of from 0 to 5 (cf. Example 7).

[15] = tested on: Cryptomeria japonica; test: Foliage treatment of woody plants (Example 10); design: key to damage to the plants, scale 0 to 5: 0 indicates no effect; 5 indicates complete kill; conditions: CP Cryptomeria japonica
Excerpt: as §2

C[C@H](NC(=O)[C@H](C)NC(=O)[C@@H](N)CCP(C)(=O)[O-])C(=O)O.[Na+] [SF, reference compound]
3: damage to the plants, scale 0 to 5 ([1]; 0.1%, 7 days) | damage to the plants, scale 0 to 5 ([2]; 0.2%, 7 days) | damage to the plants, scale 0 to 5 ([3]; 0.1%, 7 days) | damage to the plants, scale 0 to 5 ([4]; 0.1%, 7 days) | damage to the plants, scale 0 to 5 ([5]; 0.1%, 7 days) | damage to the plants, scale 0 to 5 ([6]; 0.1%, 7 days) | damage to the plants, scale 0 to 5 ([7]; 0.1%, 7 days) | damage to the plants, scale 0 to 5 ([8]; 0.1%, 7 days) | damage to the plants, scale 0 to 5 ([9]; 0.1%, 7 days) | damage to the plants, scale 0 to 5 ([10]; 0.1%, 7 days) | damage to the plants, scale 0 to 5 ([11]; 0.1%, 7 days) | damage to the plants, scale 0 to 5 ([12]; 0.1%, 7 days)
4: damage to the plants, scale 0 to 5 ([1]; 0.1%, 14 days) | damage to the plants, scale 0 to 5 ([1]; 0.2%, 7 days) | damage to the plants, scale 0 to 5 ([2]; 0.1%, 14 days) | damage to the plants, scale 0 to 5 ([3]; 0.1%, 14 days) | damage to the plants, scale 0 to 5 ([4]; 0.1%, 14 days) | damage to the plants, scale 0 to 5 ([4]; 0.2%, 7 days) | damage to the plants, scale 0 to 5 ([5]; 0.1%, 14 days) | damage to the plants, scale 0 to 5 ([5]; 0.2%, 7 days) | damage to the plants, scale 0 to 5 ([6]; 0.1%, 14 days) | damage to the plants, scale 0 to 5 ([6]; 0.2%, 7 days) | damage to the plants, scale 0 to 5 ([7]; 0.1%, 14 days) | damage to the plants, scale 0 to 5 ([7]; 0.2%, 7 days) | damage to the plants, scale 0 to 5 ([8]; 0.1%, 14 days) | damage to the plants, scale 0 to 5 ([8]; 0.2%, 7 days) | damage to the plants, scale 0 to 5 ([9]; 0.1%, 14 days) | damage to the plants, scale 0 to 5 ([9]; 0.2%, 7 days) | damage to the plants, scale 0 to 5 ([10]; 0.1%, 14 days) | damage to the plants, scale 0 to 5 ([10]; 0.2%, 7 days) | damage to the plants, scale 0 to 5 ([11]; 0.1%, 14 days) | damage to the plants, scale 0 to 5 ([12]; 0.1%, 14 days) | damage to the plants, scale 0 to 5 ([12]; 0.2%, 7 days) | damage to weeds and brush, scale 0 to 5 ([13]; 0.1%)
5: damage to the plants, scale 0 to 5 ([1]; 0.2%, 14 days) | damage to the plants, scale 0 to 5 ([2]; 0.2%, 14 days) | damage to the plants, scale 0 to 5 ([3]; 0.2%, 7 days) | damage to the plants, scale 0 to 5 ([3]; 0.2%, 14 days) | damage to the plants, scale 0 to 5 ([4]; 0.2%, 14 days) | damage to the plants, scale 0 to 5 ([5]; 0.2%, 14 days) | damage to the plants, scale 0 to 5 ([6]; 0.2%, 14 days) | damage to the plants, scale 0 to 5 ([7]; 0.2%, 14 days) | damage to the plants, scale 0 to 5 ([8]; 0.2%, 14 days) | damage to the plants, scale 0 to 5 ([9]; 0.2%, 14 days) | damage to the plants, scale 0 to 5 ([10]; 0.2%, 14 days) | damage to the plants, scale 0 to 5 ([11]; 0.2%, 7 days) | damage to the plants, scale 0 to 5 ([11]; 0.2%, 14 days) | damage to the plants, scale 0 to 5 ([12]; 0.2%, 14 days) | damage to weeds and brush, scale 0 to 5 ([13]; 0.2%)
2: damage to the plants, scale 0 to 5 ([2]; 0.1%, 7 days) | damage to weeds and brush, scale 0 to 5 ([13]; 0.05%) | damage to the plants, scale 0 to 5 ([15]; 0.5%, 14 days)
1: damage to the plants, scale 0 to 5 ([15]; 0.25%, 14 days)
0: damage to the plants, scale 0 to 5 ([14]; 0.125%, 7 days) | damage to the plants, scale 0 to 5 ([14]; 0.125%, 14 days) | damage to the plants, scale 0 to 5 ([14]; 0.25%, 7 days) | damage to the plants, scale 0 to 5 ([14]; 0.25%, 14 days) | damage to the plants, scale 0 to 5 ([14]; 0.5%, 7 days) | damage to the plants, scale 0 to 5 ([14]; 0.5%, 14 days) | damage to the plants, scale 0 to 5 ([15]; 0.125%, 7 days) | damage to the plants, scale 0 to 5 ([15]; 0.125%, 14 days) | damage to the plants, scale 0 to 5 ([15]; 0.25%, 7 days) | damage to the plants, scale 0 to 5 ([15]; 0.5%, 7 days)

Source: patent publication US4613355A, “Antibiotic having herbicidal activity” (Satoshi Omura, priority 1983, dated 1986)
